Laboratory results published in US11161837B2, “Benzofuran derivatives for the treatment of hepatitis C” (BRISTOL-MYERS SQUIBB COMPANY, priority 2016, dated 2021).

Assays:
[1] = molecular target: T1, NS5B proteins of HCV genotype 1b (Con1) (Hepatitis C virus genotype 1b, UniProt Q9WMX2); assay: HCV NS5B RdRp enzyme assay; format: biochemical; conditions: 1b enzyme
T1 construct: Each untagged protein was expressed with an 18 amino acid C-terminal truncation to enhance the solubility; made in house; host or cells: E. coli BL21(DE3), pET21a
Method: HCVNS5B RdRp Cloning, Expression, and Purification.
The cDNA encoding NS5B proteins of HCV genotype 1b (Con1), a genotype 1b variant with amino acid 316 mutated from cysteine to asparagine, and genotype 2a (JFH-1), were cloned into the pET21a expression vector. Each untagged protein was expressed with an 18 amino acid C-terminal truncation to enhance the solubility. The E. coli competent cell line BL21(DE3) was used for expression of the protein. Cultures were grown at 37° C. for ˜4 hours until the cultures reached an optical density of 2.0 at 600 nm. The cultures were cooled to 20° C. and induced with 1 mM IPTG. Fresh ampicillin was added to a final concentration of 50 μg/mL and the cells were grown overnight at 20° C.
Cell pellets (3 L) were lysed for purification to yield 15-24 mgs of purified NS5B. The lysis buffer consisted of 20 mM Tris-HCl, pH 7.4, 500 mM NaCl, 0.5% triton X-100, 1 mM DTT, 1 mM EDTA, 20% glycerol, 0.5 mg/mL lysozyme, 10 mM MgCl2, 15 ug/mL deoxyribonuclease I, and Complete TM protease inhibitor tablets (Roche). After addition of the lysis buffer, frozen cell pellets were resuspended using a tissue homogenizer. To reduce the viscosity of the sample, aliquots of the lysate were sonicated on ice using a microtip attached to a Branson sonicator. The sonicated lysate was centrifuged at 100,000×g for 30 minutes at 4° C. and filtered through a 0.2 μm filter unit (Corning).
The protein was purified using two sequential chromatography steps: Heparin sepharose CL-6B and polyU sepharose 4B. The chromatography buffers were identical to the lysis buffer but contained no lysozyme, deoxyribonuclease I, MgCl2 or protease inhibitor and the NaCl concentration of the buffer was adjusted according to the requirements for charging the protein onto the column. Each column was eluted with a NaCl gradient which varied in length from 5-50 column volumes depending on the column type. After the final chromatography step, the resulting purity of the enzyme is >90% based on SDS-PAGE analysis. The enzyme was aliquoted and stored at −80° C.
HCVNS5B RdRp Enzyme Assay.
An on-bead solid phase homogeneous assay was used in a 384-well format to assess NS5B inhibitors (WangY-K, Rigat K, Roberts S, and Gao M (2006) Anal Biochem, 359: 106-111). The biotinylated oligo dT12 primer was captured on streptavidin-coupled imaging beads (GE, RPNQ0261) by mixing primer and beads in 1× buffer and incubating at room temperature for three hours. Unbound primer was removed after centrifugation. The primer-bound beads were resuspended in 3× reaction mix (20 mM Hepes buffer, pH 7.5, dT primer coupled beads, poly A template, ^3H-UTP, and RNAse inhibitor (Promega N2515)). Compounds were serially diluted 1:3 in DMSO and aliquoted into assay plates. Equal volumes (10 μL) of water, 3× reaction mix, and enzyme in 3× assay buffer (60 mM Hepes buffer, pH 7.5, 7.5 mM MgCl2, 7.5 mM KCl, 3 mM DTT, 0.03 mg/mL BSA, 6% glycerol) were added to the diluted compound on the assay plate. Final concentration of components in 384-well assay: 0.36 nM template, 15 nM primer, 0.29 μM ^3H-UTP (0.3 μCi), 1.6 U/μL RNAse inhibitor, 7 nM NS5B enzyme, 0.01 mg/mL BSA, 1 mM DTT, and 0.33 μg/μL beads, 20 mM Hepes buffer, pH 7.5, 2.5 mM MgCl2, 2.5 mM KCl, and 0.1% DMSO.
Reactions were allowed to proceed from 4 to 24 hours at 30° C. For 24 hour reactions, enzyme and inhibitors were pre-incubated for 24 hours before adding template and primer. Reactions were terminated by the addition of 50 mM EDTA (10 μL). After incubating for at least 15 minutes, plates were read on an Amersham LEADseeker multimodality imaging system.
IC50 values for compounds were determined using ten different [I]. IC50 values were calculated from the inhibition using the four-parameter logistic formula y=A+((B−A)/(1+((C/x)^D))), where A and B denote minimal and maximal % inhibition, respectively, C is the IC50, D is hill slope and x represents compound concentration.

[2] = tested on: genotype 1b (Con-1) HCV replicon in Huh-7 cells; assay: HCV replicon luciferase assay; format: cell-based; conditions: 1b replicon, Huh-7, Renilla luciferase, 3 days incubation
Outline: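 Huh-7 cells carrying Con-1 genotype 1b replicon with Renilla luciferase reporter seeded onto titrated compound in DMEM, 4% FBS, 0.5% DMSO, 3 days at 37 °C. Luciferase read with EnduRen substrate (7.5 μM final) after ≥1 h; EC50 by four-parameter logistic fit.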

T1 sequence (Q9WMX2 2420-2992): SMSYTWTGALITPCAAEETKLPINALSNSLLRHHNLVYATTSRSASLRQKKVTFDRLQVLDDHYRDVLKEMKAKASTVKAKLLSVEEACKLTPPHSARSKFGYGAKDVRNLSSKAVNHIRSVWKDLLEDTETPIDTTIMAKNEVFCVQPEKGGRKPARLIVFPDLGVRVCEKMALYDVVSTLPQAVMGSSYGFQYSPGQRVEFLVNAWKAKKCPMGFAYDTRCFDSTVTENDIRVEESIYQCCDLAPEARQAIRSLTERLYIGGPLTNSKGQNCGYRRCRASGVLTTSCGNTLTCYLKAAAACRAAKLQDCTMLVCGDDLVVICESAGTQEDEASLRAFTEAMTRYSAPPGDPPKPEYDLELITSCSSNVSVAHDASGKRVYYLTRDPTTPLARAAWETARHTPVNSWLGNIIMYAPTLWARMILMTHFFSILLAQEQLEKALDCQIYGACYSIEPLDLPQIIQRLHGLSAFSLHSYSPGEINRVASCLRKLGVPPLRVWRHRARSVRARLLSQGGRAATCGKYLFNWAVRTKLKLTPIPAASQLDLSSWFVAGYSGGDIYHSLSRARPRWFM

Compound | IC50 [1] [nM] | EC50 [2] [nM] | EC50 ([2]; Hepatitis C virus, Huh-7, 72 h) [nM]
CCCc1cc2oc(-c3ccc(F)cc3)c(C(=O)NC)c2cc1-c1ccc(F)c(C(=O)NC2(c3ncccn3)CC(OC(F)(F)F)C2)c1 (single isomer, unassigned) [Example 48b, 5-(4-Fluoro-3-((1-(pyrimidin-2-yl)-3-(trifluoromethoxy)cyclobutyl)carbamoyl)phenyl)-2-(4-fluorophenyl)-N-methyl-6-propylbenzofuran-3-carboxamide] | 8.27 | 10 | 
CNC(=O)c1c(-c2ccc(F)cc2)oc2cc(CCC(F)(F)F)c(-c3cccc(C(=O)NC4(c5ncccn5)CC(OC(F)F)C4)c3)cc12 (single isomer, unassigned) [Example 29a] | 6.14 | 4.07 | 
CNC(=O)c1c(-c2ccc(F)cc2)oc2ccc(-c3cc(C(=O)NC4(c5ncccn5)CC(OC)C4)c(OC)cc3C)c(F)c12 (single isomer, unassigned) [Example 13b, 4-Fluoro-2-(4-fluorophenyl)-5-(4-methoxy-5-((3-methoxy-1-(pyrimidin-2-yl)cyclobutyl)carbamoyl)-2-methylphenyl)-N-methylbenzofuran-3-carboxamide] | 20 | 6.44 | 
CNC(=O)c1c(-c2ccc(F)cc2)oc2cc(CCC(F)(F)F)c(-c3ccc(F)c(C(=O)NC4(c5ncccn5)CC(OC(F)F)C4)c3)cc12 (centres unmarked) [Example 42, 5-(3-((3-(Difluoromethoxy)-1-(pyrimidin-2-yl)cyclobutyl)carbamoyl)-4-fluorophenyl)-2-(4-fluorophenyl)-N-methyl-6-(3,3,3-trifluoropropyl)benzofuran-3-carboxamide] | 7.6 |  | 5.73
CNC(=O)c1c(-c2ccc(F)cc2)oc2ccc(-c3cc(C(=O)NC4(c5ncccn5)CC(OC)C4)ccc3C)c(F)c12 (single isomer, unassigned) [Example 10b, 4-Fluoro-2-(4-fluorophenyl)-5-(5-((3-methoxy-1-(pyrimidin-2-yl)cyclobutyl)carbamoyl)-2-methylphenyl)-N-methylbenzofuran-3-carboxamide] | 10 | 4.43 | 
CNC(=O)c1c(-c2ccc(F)cc2)oc2cc(CCC(F)(F)F)c(-c3ccc(OC)c(C(=O)NC4(c5ncccn5)CC(OC(F)(F)F)C4)c3)cc12 (single isomer, unassigned) [Example 47a, 2-(4-Fluorophenyl)-5-(4-methoxy-3-((1-(pyrimidin-2-yl)-3-(trifluoromethoxy)cyclobutyl)carbamoyl)phenyl)-N-methyl-6-(3,3,3-trifluoropropyl)benzofuran-3-carboxamide] | 20 |  | 10
CCOc1cc2oc(-c3ccc(F)cc3)c(C(=O)NC)c2cc1-c1ccc(OC)c(C(=O)NC2(c3ncccn3)CC(OC(F)F)C2)c1 (single isomer, unassigned) [Example 66a, 5-(3-((3-(Difluoromethoxy)-1-(pyrimidin-2-yl)cyclobutyl)carbamoyl)-4-methoxyphenyl)-6-ethoxy-2-(4-fluorophenyl)-N-methylbenzofuran-3-carboxamide] | 1.91 |  | 4.05
CCOc1cc2oc(-c3ccc(F)cc3)c(C(=O)NC)c2cc1-c1cccc(C(=O)NC2(c3ncccn3)CC(OC(F)F)C2)c1 (single isomer, unassigned) [Example 67b, 5-(3-((3-(Difluoromethoxy)-1-(pyrimidin-2-yl)cyclobutyl)carbamoyl)phenyl)-6-ethoxy-2-(4-fluorophenyl)-N-methylbenzofuran-3-carboxamide] | 2.11 | 6.8 | 
CCOc1cc2oc(-c3ccc(F)cc3)c(C(=O)NC)c2cc1-c1ccc(OC)c(C(=O)NC2(c3ncccn3)CC(OC(F)F)C2)c1 (single isomer, unassigned) [Example 66b, 5-(3-((3-(Difluoromethoxy)-1-(pyrimidin-2-yl)cyclobutyl)carbamoyl)-4-methoxyphenyl)-6-ethoxy-2-(4-fluorophenyl)-N-methylbenzofuran-3-carboxamide] | 2.02 | 4.39 | 
CNC(=O)c1c(-c2ccc(F)cc2)oc2ccc(-c3cc(C(=O)NC4(c5ncccn5)CC(F)(F)C4)ccc3C)c(F)c12 [Example 15, 5-(5-((3,3-Difluoro-1-(pyrimidin-2-yl)cyclobutyl)carbamoyl)-2-methylphenyl)-4-fluoro-2-(4-fluorophenyl)-N-methylbenzofuran-3-carboxamide] | 30 |  | 30
CNC(=O)c1c(-c2ccc(F)cc2)oc2ccc(-c3cc(C(=O)NC4(c5ncccn5)CC(F)(F)C4)cc(F)c3C)c(F)c12 [Example 17, 5-(5-((3,3-Difluoro-1-(pyrimidin-2-yl)cyclobutyl)carbamoyl)-3-fluoro-2-methylphenyl)-4-fluoro-2-(4-fluorophenyl)-N-methylbenzofuran-3-carboxamide] | 250 |  | 10
CNC(=O)c1c(-c2ccc(F)cc2)oc2ccc(-c3cc(C(=O)NC4(c5ncccn5)CC(OC)(OC)C4)ccc3C)c(F)c12 [Example 7, 5-(5-((3,3-Dimethoxy-1-(pyrimidin-2-yl)cyclobutyl)carbamoyl)-2-methylphenyl)-4-fluoro-2-(4-fluorophenyl)-N-methylbenzofuran-3-carboxamide] | 10 |  | 60
CNC(=O)c1c(-c2ccc(F)cc2)oc2cc(CCC(F)(F)F)c(-c3cccc(C(=O)NC4(c5ncccn5)CC(OC(F)(F)F)C4)c3)cc12 (single isomer, unassigned) [Example 45b, 2-(4-Fluorophenyl)-N-methyl-5-(3-((1-(pyrimidin-2-yl)-3-(trifluoromethoxy)cyclobutyl)carbamoyl)phenyl)-6-(3,3,3-trifluoropropyl)benzofuran-3-carboxamide] | 10 | 9.46 | 
CCCc1cc2oc(-c3ccc(F)cc3)c(C(=O)NC)c2cc1-c1ccc(OC)c(C(=O)NC2(c3ncccn3)CC(OC(F)(F)F)C2)c1 (single isomer, unassigned) [Example 51a, 2-(4-Fluorophenyl)-5-(4-methoxy-3-((1-(pyrimidin-2-yl)-3-(trifluoromethoxy)cyclobutyl)carbamoyl)phenyl)-N-methyl-6-propylbenzofuran-3-carboxamide] | 50 |  | 20
CCCc1cc2oc(-c3ccc(F)cc3)c(C(=O)NC)c2cc1-c1cc(C(=O)NC2(C)CC(OC(F)F)C2)c(OC)cc1C (single isomer, unassigned) [Example 57a, 5-(5-((3-(Difluoromethoxy)-1-methylcyclobutyl)carbamoyl)-4-methoxy-2-methylphenyl)-2-(4-fluorophenyl)-N-methyl-6-propylbenzofuran-3-carboxamide] | 10 |  | 50
CNC(=O)c1c(-c2ccc(F)cc2)oc2cc(CCC(F)(F)F)c(-c3ccc(OC)c(C(=O)NC4(c5ncccn5)CC(OC(F)F)C4)c3)cc12 (centres unmarked) [Example 43, 5-(3-((3-(Difluoromethoxy)-1-(pyrimidin-2-yl)cyclobutyl)carbamoyl)-4-methoxyphenyl)-2-(4-fluorophenyl)-N-methyl-6-(3,3,3-trifluoropropyl)benzofuran-3-carboxamide] | 10 |  | 5.6
